Experimental findings from patent US7329685B2, “1-Phenyl-2-oxo-3-sulfonylamino-pyrrolidine derivatives and related compounds as factor Xa inhibitors for the treatment of acute vascular diseases” (Glaxo Group Limited, priority 2003, dated 2008) are described below.

Counter-ions that a name gives are not always drawn. Bounds are passed on as bounds.

For the test, the target named is human Factor Xa (Homo sapiens, UniProt P00742). Kind of test: In vitro assay for inhibition of Factor Xa (fluorogenic assay, Rhodamine 110 bis-CBZ-glycylglycyl-L-arginine amide substrate). Type of test: biochemical. To be noted: Ki = IC50/1.6, tiers 'more preferably' and 'most preferably'. The procedure: In Vitro Assay for Inhibition of Factor Xa
Chain of human Factor Xa (P00742 235-488 limits assumed): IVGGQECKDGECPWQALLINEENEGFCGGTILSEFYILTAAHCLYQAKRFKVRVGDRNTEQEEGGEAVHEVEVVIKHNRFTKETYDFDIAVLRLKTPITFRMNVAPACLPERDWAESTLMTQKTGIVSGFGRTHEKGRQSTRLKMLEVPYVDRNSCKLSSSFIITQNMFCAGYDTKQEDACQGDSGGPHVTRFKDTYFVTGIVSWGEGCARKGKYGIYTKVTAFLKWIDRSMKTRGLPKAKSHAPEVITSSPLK
Chain of human Factor Xa (P00742 41-179 partner limits assumed): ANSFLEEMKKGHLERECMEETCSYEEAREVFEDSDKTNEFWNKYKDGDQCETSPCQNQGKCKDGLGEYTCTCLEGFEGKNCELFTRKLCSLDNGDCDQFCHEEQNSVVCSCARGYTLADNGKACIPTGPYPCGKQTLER
Compounds of the present invention were tested for their Factor Xa inhibitory activity as determined in vitro by their ability to Inhibit human Factor Xa in a fluorogenic assay, using Rhodamine 110, bis-CBZ-glycylglycyl-L-arginine amide as the fluorogenic substrate. Compounds were diluted from a 10 mM stock solution in dimethylsulfoxide at appropriate concentrations. Assay was performed at room temperature using buffer consisting of: 50 mM Tris-HCl, 150 mM NaCl, 5 mM CaCl2, pH 7.4. containing human Factor Xa (final conc. Of 0.0003U.ml-1). Compound and enzyme were preincubated for 15 min prior to addition of the substrate (final conc. of 10 μM). The reaction was stopped after 3 hrs with the addition of H-D-Phe-Pro-Arg-Chloromethylketone. An LJL-Analyst fluorimeter was used to monitor fluorescence with 485 nm excitation/535 nm emission. To obtain IC50 values the data were analysed using ActivityBase® and XLfit®.
Calculation of Ki values: Ki=IC50/(1+[Substrate]/Km)
The Ki value for the above assay can be obtained by dividing the IC50 value by 1.6.
Consider `C/C(=C\S(=O)(=O)N(CC1CC1)[C@H]1CCN(c2ccc(C(=O)N(C)C)cc2F)C1=O)c1ccc(Cl)s1` [Example 1, 4-{(3S)-3-[{[(1E)-2-(5-Chloro-2-thienyl)-1-propen-1-yl]sulfonyl}(cycloprotylmethyl)amino]-2-oxo-1-pyrrolidinyl}-3-fluoro-N,N-dimethylbenzamide], for which the Ki was less than 10 nM. In the case of `C/C(=C\S(=O)(=O)N(CCCN(C)C)[C@H]1CCN(c2ccc(C(=O)N(C)C)cc2F)C1=O)c1ccc(Cl)s1` [Example 2, 4-((3S)-3-{{[(1E)-2-(5-Chloro-2-thienyl)-1-propen-1-yl]sulfonyl}[3-(dimethylamino)propyl]amino}-2-oxo-1-Pyrrolidinyl)-3-fluoro-N,N-dimethylbenzamide formate], the Ki is less than 10 nM.

The molecule `C/C(=C\S(=O)(=O)N(CCOCC(N)=O)[C@H]1CCN(c2ccc(C(=O)N(C)C)cc2F)C1=O)c1ccc(Cl)s1` [Example 4, 4-[(3S)-3-({2-[(2-Amino-2-oxoethyl)oxy]ethyl}{[(1E)-2-(5-chloro-2-thienyl)-1-propen-1-yl]sulfonyl}amino)-2-oxo-1-pyrrolidinyl]-3-fluoro-N,N-dimethylbenzamide] had an inhibition constant Ki of less than 10 nM.

`C/C(=C\S(=O)(=O)N(C1CCCC1)[C@H]1CCN(c2ccc(C(=O)N(C)C)cc2F)C1=O)c1ccc(Cl)s1` [Example 5, 4-{(3S)-3-[{[(1E)-2-(5-Chloro-2-thienyl)-1-propen-1-yl]sulfonyl}(cyclopentyl)amino]-2-oxo-1-pyrrolidinyl}-3-fluoro-N,N-dimethylbenzamide] came in with a Ki of less than 10 nM. `C/C(=C\S(=O)(=O)N(Cc1nccn1C)[C@H]1CCN(c2ccc(C(=O)N(C)C)cc2F)C1=O)c1ccc(Cl)s1` [Example 6, 4-((3S)-3{{[(1E)-2-(5-Chloro-2-thienyl)-1-propen-1-yl]sulfonyl}[(1-methyl-1H-imidazol-2-yl)methyl]amino}-2-oxo-1-pyrrolidinyl)-3-fluoro-N,N-dimethylbenzamide] gave an inhibition constant (Ki) of less than 10 nM.

As to `C/C(=C\S(=O)(=O)N(C(C)C)[C@H]1CCN(c2ccc(C(=O)N(C)C)cc2F)C1=O)c1ccc(Cl)s1` [Example 7, 4-{(3S)-3-[{[(1E)-2-(5-Chloro-2-thienyl)-1-propen-1-yl]sulfonyl}(1-methylethyl)amino]-2-oxo-1-pyrrolidinyl}-3-fluoro-N,N-dimethylbenzamide], the inhibition constant Ki was less than 10 nM.

In the case of `C/C(=C\S(=O)(=O)N(Cc1ccccn1)[C@H]1CCN(c2ccc(C(=O)N(C)C)cc2F)C1=O)c1ccc(Cl)s1` [Example 8, 4-{(3S)-3-[{[(1E)-2-(5-Chloro-2-thienyl)-1-propen-1-yl]sulfonyl}(2-pyridinylmethyl)amino]-2-oxo-1-pyrrolidinyl}-3-fluoro-N,N-dimethylbenzamide], the inhibition constant (Ki) was less than 10 nM. On to `C/C(=C\S(=O)(=O)N(Cc1c(C)noc1C)[C@H]1CCN(c2ccc(C(=O)N(C)C)cc2F)C1=O)c1ccc(Cl)s1` [Example 9, 4-((3S)-3-{{[(1E)-2-(5-Chloro-2-thienyl)-1-propen-1-yl]sulfonyl}[(3,5-dimethyl-4-isoxazolyl)methyl]amino}-2-oxo-1-pyrrolidinyl)-3-fluoro-N,N-dimethylbenzamide], for which the inhibitory constant (Ki) is less than 10 nM.

In turn, `COCCN([C@H]1CCN(c2ccc(C(=O)N(C)C)cc2F)C1=O)S(=O)(=O)/C=C(\C)c1ccc(Cl)s1` [Example 10, 4-((3S)-3-{{[(1E)-2-(5-Chloro-2-thienyl)-1-propen-1-yl]sulfonyl}[2-(methyloxy)ethyl]amino}-2-oxo-1-pyrrolidinyl)-3-fluoro-N,N-dimethylbenzamide] gave a Ki of less than 10 nM. On to `C/C(=C\S(=O)(=O)N(CCOC(C)(C)C)[C@H]1CCN(c2ccc(C(=O)N(C)C)cc2F)C1=O)c1ccc(Cl)s1` [Example 11, 4-[(3S)-3-({[(1E)-2-(5-Chloro-2-thienyl)-1-propen-1-yl]sulfonyl}{2-[(1,1-dimethylethyl)oxy]ethyl}amino)-2-oxo-1-pyrrolidinyl]-3-fluoro-N,N-dimethylbenzamide], for which the inhibitory constant (Ki) was less than 10 nM.

As for `C/C(=C\S(=O)(=O)N(Cc1nccnc1N)[C@H]1CCN(c2ccc(C(=O)N(C)C)cc2F)C1=O)c1ccc(Cl)s1` [Example 12, 4-[(3S)-3-([(3-Amino-2-pyrazinyl)methyl]{[(1E)-2-(5-chloro-2-thienyl)-1-propen-1-yl]sulfonyl}amino)-2-oxo-1-pyrrolidinyl]-3-fluoro-N,N-dimethylbenzamide], the inhibitory constant (Ki) was less than 10 nM. Molecule `C/C(=C\S(=O)(=O)N(C)[C@H]1CCN(c2ccc(C(=O)N(C)C)cc2F)C1=O)c1ccc(Cl)s1` [Example 13, 4-{(3S)-3-[{[(1E)-2-(5-Chloro-2-thienyl)-1-propen-1-yl]sulfonyl}(methyl)amino]-2-oxo-1-pyrrolidinyl}-3-fluoro-N,N-dimethylbenzamide] gave an inhibition constant (Ki) of less than 10 nM. To `CN(C)C(=O)c1ccc(N2CC[C@H](N(C)S(=O)(=O)/C=C/c3ccc(Cl)s3)C2=O)c(F)c1` [Example 14, 4-{(3S)-3-[{[(E)-2-(5-chloro-2-thienyl)ethenyl]sulfonyl}(methyl)amino]-2-oxo-1-pyrrolidinyl}-3-fluoro-N,N-dimethylbenzamide] belongs less than 10 nM.

What is called Ki is a measure of affinity in units of concentration, obtained from inhibition or displacement. A lower Ki goes with a stronger hold on the target.
